Patent US6579864B1, “3-methylene steroid derivatives” (Akzo Nobel NV, priority 1999, dated 2003)

Assays:
[1] = test system: DTH reaction in Balb/c mice; experiment: Delayed type hypersensitivity (DTH) reaction, Tetanus Toxoid footpad swelling; assay type: in vivo; conditions: female Balb/c mice, sc. once daily day 1-11, Tetanus Toxoid immunization day 2, challenge day 9, footpad swelling
Procedure: In the delayed type hypersensitivity (DTH) procedure, the effect of a compound on the development of an immune reaction can be observed in mice (details in example 16). Briefly, the compound is administered daily and the animals are immunized subsequently with an antigen in adjuvant. After 7 days the animals are challenged locally by injecting the antigen locally (mostly in the foot) and measuring the subsequently developing local swelling in response to the deposition of the antigen. The degree of this swelling is related to the development of an immune response against the eliciting antigen. The inhibiting action of a compound of this invention on the development of this swelling can be determined, by comparing the treatment group with a placebo treated group. As a reference treatment, administration of glucocorticoids can be used.
Groups of eight female Balb/c (Harlan, Zeist, The Netherlands) mice were used, approximately 8 weeks of age at the start of the experiment. These mice were housed in Macrolon cages, under standard conditions and acclimatized for 3-5 days before the start of the experiment. The groups received either compound or placebo.
They were weighed on day 1 and on the last treatment day. Animals were treated once daily by subcutaneous (sc) injection in the back of the neck or by oral gavage from day 1 till day 11 with a test compound in concentration range from 1.2, 3, 4, 6, to 12 mg/kg. The injection volume was 0.1 mL of a vehicle for injection consisting of physiological saline containing 0.5% gelatin and 5% mannitol. A placebo treated group (vehicle only) and a group treated with 4 mg/kg dexamethasone as reference compound were included in each experiment.
On day 2, animals were immunized with 0.1 ml of a stable suspension of 3.75 Lf Tetanus Toxoid antigen (TT from the RIVM, Zeist, The Netherlands) in 1 mg/ml dimethyl dioctadecylammonium bromide (DDA) from Phase Sep, at 2 places on the breast intradermally.
On day 9 animals were challenged on the ventral side of the right [R] paw with 0.05 mL of a solution containing 50 Lf TT and 1 mg Al(OH)3 per mL. The left [L] footpad (control) received the vehiculum with Al(OH)3 only. After 24 and 48 hours, the left and right footpad thickness (parameters L and R, respectively) were measured with a calipers densitometer in mm and the percentage of antigen-specific footpad swelling was calculated according to the formula: [(R−L)/L]×100%. Results

Structure (SMILES)	Amount of compound given sc. in mg/kg leading to 50% reduction of the DTH reaction as compared to placebo [1] [mg/kg]	melting point [°C]
C#CC1(O)CCC2C3C(C)CC4=C(CCC(=C)C4)C3CCC21C (stereo not drawn) [example 1, (7α,17α)-7-methyl-3-methylene-19-norpregn-5(10)-en-20-yn-17-ol]	1.9 to 3.4	
C=C1CCC2=C(C1)C[C@@H](C)[C@@H]1[C@@H]2CC[C@]2(C)[C@@H](O)CC[C@@H]12 [example 2, (7α,17β)-7-methyl-3-methyleneestr-5(10)-en-17-ol]	20	111.8
C#CC1(O)CCC2C3C(C)CC45CC(=C)CCC4(O5)C3CCC21C (stereo not drawn) [example 3, (5β,7α,17α)-5,10-epoxy-7-methyl-3-methylene-19-norpregn-20-yn-17-ol]	11	
C=C1CC[C@@]23O[C@]2(C1)C[C@@H](C)[C@H]1[C@@H]2CC[C@H](O)[C@@]2(C)CC[C@@H]13 [example 4, (5β,7α,17β)-5,10-epoxy-7-methyl-3-methyleneestran-17-ol]	>20	125
C=C[C@]1(O)CC[C@H]2[C@H]3[C@H](CC[C@@]21C)[C@H]1CCC(=C)C[C@@H]1C[C@H]3C [example 5, (5α,7α,17α)-7-methyl-3-methylene-19-norpregn-20-en-17-ol]	10	
C=C1CC[C@H]2[C@@H](C1)C[C@@H](C)[C@@H]1[C@@H]2CC[C@@]2(C)[C@H]1CC[C@@]2(O)CC [example 7, (5β,7α,17α)-7-Methyl-3-methylene-19-norpregnan-17-ol]	6	
